Patent US9556237B2 (priority 2012, dated 2017)
Peptide text beside a SMILES is read from it.

Tested on: Vero E6 cells

## CSCC[C@H](N)C(=O)N[C@@H](Cc1ccccc1)C(=O)N[C@@H](CC(C)C)C(=O)NCC(=O)N[C@@H](Cc1c[nH]c2ccccc12)C(=O)N[C@@H](CO)C(=O)N[C@@H](Cc1ccccc1)C(=O)N[C@@H](CC(=O)O)C(=O)N[C@@H](Cc1ccccc1)C(=O)NCC(=O)N[C@@H](CO)C(=O)N[C@@H](CC(C)C)C(=O)N[C@@H](Cc1c[nH]c2ccccc12)C(=O)NCC(=O)N[C@@H](CC(N)=O)C(=O)N[C@@H](CCCCN)C(=O)N1CCC[C@H]1C(=O)N[C@@H](Cc1c[nH]c2ccccc12)C(=O)N[C@@H](Cc1ccccc1)C(=O)O [RVFV-6sc, MFLGWSFDFGSLWGNKPWF, reference compound] (H-MFLGWSFDFGSLWGNKPWF-OH)
  impact on cell proliferation (MTT assay): little negative impact on cell proliferation
